For series [1], the system named is cryopreserved human hepatocytes (primary culture). Nature of the series: Hepatocyte viability (MTT test) on suspended cryopreserved human hepatocytes. The class given is cell-based. The settings on record: 90 minutes incubation, relative to non treated cells. How it is done: The hepatocyte viability corresponds to the percentage of surviving suspended human hepatocytes after 90 minutes of incubation with the compounds of the invention present at a concentration of […].
Hepatocyte viability was measured for different compounds according to the invention with cryopreserved human hepatocytes (primary culture) suspended and distributed in 96-well plates with a density of 0.1×10^6 cells per well, in a […] culture medium per well (DMEM+gentamycin (50 mg/L)+insulin (4 mg/L)+dexamethasone (1 μM)) in a CO2/air (5%/95%) humidified atmosphere at 37° C. After 30 minutes for attaining equilibrium, […] of culture medium containing the tested compounds (dissolved in DMSO) or of medium only containing DMSO (final concentration of 0.1%) were added with stirring at 900 rpm.
Cytotoxicity is evaluated with an MTT (Thiazolyl Blue Tetrazolium Bromide) test. The tested compounds or the DMSO are left to incubate for 90 minutes, and then 10 μL of MTT at 10 mg/10 mL are added per well for 30 mins. Next, the plates are centrifuged for 10 minutes at 2,000 g, the MTT is removed and some DMSO is added in an amount of 100 μL per well. The plates are gently shaked and then absorbance is measured at 595 nm by means of a spectrophotometric reader of micro-plates. The hepatocyte viability measured here corresponds to the percentage of surviving hepatocytes after 90 minutes of incubation with the compounds tested at a concentration of 100 μM, relatively to non treated cells.
The same tests were conducted for a concentration of compounds at 200 μM.
The tests were conducted in two distinct campaigns. In both cases, troglitazone (K) was used as a reference molecule.

A further series relates to MCF7. Nature of the series: Antiproliferative activity (MTS) on MCF7. In kind it is cell-based, human. To be noted: Homo sapiens, MCF7, 72 hours; for inhibition at 10 µM: 10^-5 M, triplicate, read-out: percentage of inhibition of cell growth, MCF7; for IC50: averages of two independent values. The procedure: (§1) Antiproliferative activity was measured for different compounds according to the invention by analysis of cytoxicity at 10^−5M on diverse cancer cell lines in DMSO in triplicate. For certain molecules and certain lines, the same procedure was used for determining the IC50 values (the required concentration in μM for inhibiting by half the proliferation of the cells), by conducting cytotoxicity tests at concentrations from 0.005 μM to 100 μM in duplicate. The procedure is the following. The cells of the relevant line are sown in the suitable medium (see Table III) added with L-glutamine, with 10% (v/v) of fetal calf serum, 100 IU of penicillin, 100 μg/mL of streptomycin and 1.5 μg/mL of fungizone and maintained under 5% of CO2 at 37° C. 96-well plates are sown with the required number of cells per well (see Table III) in 200 μL of medium. 24 hours later, the chemical compounds to be investigated, dissolved in DMSO, are added and the media are maintained for 72 hours under these conditions with a set final concentration in DMSO (1%). The controls received an equal volume of DMSO. The number of viable cells is measured at 490 nm with the MTS reagent (Promega, Madison Wis.). The IC50s are calculated as the concentrations of compounds inducing 50% inhibition of cell proliferation.
(§2) Tables IV and V below indicate the percentage of inhibition of cell growth, i.e. the percentage of dead cells after treatment with a compound dose of 10^−5 M. The tests were conducted in triplicate.

The subject of the next series is HCT116. In words: Antiproliferative activity (MTS) on HCT116. The class given is cell-based. To be noted: Homo sapiens, HCT-116; 10^-5 M, 72 hours, triplicate; read-out: percentage of inhibition of cell growth, HCT116. The procedure:
as §1, §2

Another series relates to MDA231. In words: Antiproliferative activity (MTS) on MDA231. In kind it is cell-based, human. The settings on record: Homo sapiens, MDA-MB-231, 72 hours; for inhibition at 10 µM: 10^-5 M, triplicate, read-out: percentage of inhibition of cell growth, MDA231; for IC50: averages of two independent values. The procedure: as §1, §2
For a further series, the system named is MDA435. Nature of the series: Antiproliferative activity (MTS) on MDA435. The class given is cell-based. The settings on record: Homo sapiens, 10^-5 M, 72 hours, triplicate, read-out: percentage of inhibition of cell growth, MDA435. How it is done:
as §1, §2

Another series deals with Mia-PaCa. In words: Antiproliferative activity (MTS) on Mia-PaCa. The class given is cell-based. The settings on record: Homo sapiens, MIA PaCa-2, 72 hours; for inhibition at 10 µM: 10^-5 M, triplicate, read-out: percentage of inhibition of cell growth, Mia-PaCa; for IC50: averages of two independent values. How it is done:
as §1, §2

For a further series, the system named is HepG2. In words: Antiproliferative activity (MTS) on HepG2. The class given is cell-based. To be noted: Homo sapiens, 72 hours; for inhibition at 10 µM: 10^-5 M, triplicate, read-out: percentage of inhibition of cell growth, HepG2; for IC50: averages of two independent values. How it is done: as §1, §2
The test system of a further series is PC3. Nature of the series: Antiproliferative activity (MTS) on PC3. In kind it is cell-based. The settings on record: Homo sapiens, PC-3; 10^-5 M, 72 hours, triplicate; read-out: percentage of inhibition of cell growth, PC3. How it is done:
as §1, §2

A further series has as its system LNCaP. Nature of the series: Antiproliferative activity (MTS) on LNCaP. In kind it is cell-based. The settings on record: Homo sapiens, 72 hours; for inhibition at 10 µM: 10^-5 M, triplicate, read-out: percentage of inhibition of cell growth, LNCaP; for IC50: averages of two independent values. How it is done: as §1, §2

This note sets out measurements from patent US9522909B2, “Thiazolidinedione derivatives, preparation thereof and use thereof in cancer treatment” (UNIVERSITE DE LORRAINE, priority 2012, dated 2016).

Counter-ions that a name gives are not always drawn.

For the compound `Cc1c(C)c2c(c(C)c1OC(=O)OC(C)(C)C)CCC(C)(COc1ccc(C=C3SC(=O)N(C)C3=O)cc1)O2` (racemic) [F, (±) tertiobutyl(2,5,7,8-tetramethyl-2-[4-(3-methyl-2,4-dioxo-thiazolidin-5-ylidenemethyl)-phenoxymethyl]-chroman-6-yl)carbonate], in [1] (Table II campaign), the “Hepatocyte viability % (100 μM)” value came to 81% and the “Hepatocyte viability % (200 μM)” value was 66%.

Usually inhibition stands for the relative decrease from the control value, in per cent. Take `CCN(CC)c1ccc2c(-c3ccc(NC(=S)NCCCCCCc4c(C)c(C)c5c(c4C)CCC(C)(COc4ccc(/C=C6\SC(=O)NC6=O)cc4)O5)cc3C(=O)O)c3ccc(=[N+](CC)CC)cc-3oc2c1` (racemic) [Compound Q, (±) (9-{2-carboxy-4-[3-(6-{2-[4-(2,4-dioxo-thiazolidin-5-ylidenemethyl)-phenoxy-methyl]-2,5,7,8-tetramethyl-chroman-6-yl}-hexyl)-thioureido]-phenyl}-6-diethylamino-xanthen-3-ylidene)-diethyl-ammonium]: the inhibition at 10 µM with MCF7 was found to be 59%; in the series with HCT116, 80%; in the series with MDA231 it was 71%; with MDA435, 59%; in the series with Mia-PaCa, 70%; in the series with HepG2, 75%. Also, the figures for the inhibition at 10 µM in the series on PC3 and in the series with LNCaP were 60% and 67%, respectively.

On to `Cc1c(C)c2c(c(C)c1O)CCC(C)(COc1ccc(CC3SC(=O)NC3=O)cc1)O2` (stereo not shown) [K, troglitazone, reference compound], for which the entries for the “Hepatocyte viability % (100 μM)” value in series [1] (Table I campaign) and in series [1] (Table II campaign) were 79% and 52%, respectively. Further, the results for the “Hepatocyte viability % (200 μM)” value in series [1] (Table I campaign) and in [1] (Table II campaign) were 30% and 22%, respectively. The inhibition at 10 µM was found to be 3% in the series on MCF7; 9% with HCT116; 12% in the series on MDA231; 12% in the series with MDA435; 2% with Mia-PaCa; 14% with HepG2. For the same compound, the inhibition at 10 µM in the series on PC3 was determined as 14%; with LNCaP, 17%.

In general, IC50 refers to the concentration needed to halve the response being measured. High values mean weaker potency in that assay, low ones greater potency in that assay. With `O=C1S/C(=C\c2ccc(O)cc2)C(=O)N1C/C=C/c1ccccc1` [Compound A, 5-(4-hydroxy-benzylidene)-3-(3-phenyl-allyl)-thiazolidine-2,4-dione], the “Hepatocyte viability % (100 μM)” value in series [1] (Table I campaign) turned out to be 89%. Moreover, the “Hepatocyte viability % (200 μM)” value in series [1] (Table I campaign) turned out to be 63%. The inhibition at 10 µM with MCF7 was 65%; with HCT116, 83%; with MDA231 it was 91%; with MDA435, 82%; with Mia-PaCa, 84%; in the series with HepG2, 59%. Moreover, the values for the inhibition at 10 µM in the series on PC3 and in the series with LNCaP were 43% and 37%, respectively. For the same compound, the IC50 with MCF7 worked out at 5.2 µM; in the series on MDA231, 2200 nM; with Mia-PaCa, 4.8 µM; in the series with HepG2, 10.1 µM; in the series with LNCaP, 19.4 µM.

Turning to `Cc1c(C)c2c(c(C)c1O)CCC(C)(COc1ccc(/C=C3\SC(=O)N(Cc4ccccc4)C3=O)cc1)O2` (stereo not shown) [G], in series [1] (Table II campaign), the “Hepatocyte viability % (100 μM)” value turned out to be 87% and the “Hepatocyte viability % (200 μM)” value turned out to be 63%.

As for `Cc1c(C)c2c(c(C)c1OC(=O)CCCCCCCN)CCC(C)(COc1ccc(/C=C3\SC(=O)N(C)C3=O)cc1)O2` (racemic) [Compound B, (±) 8-amino {2,5,7,8-tetramethyl-2-[4-(3-methyl-2,4-dioxo-thiazolidin-5-ylidenemethyl)-phenoxymethyl]-chroman-6-yl}octanoate trifluoroacetate], the inhibition at 10 µM in the series on MCF7 turned out to be 101%; in the series with HCT116, 99%; in the series on MDA231 it was 101%; in the series with MDA435, 100%; in the series on Mia-PaCa, 101%; with HepG2, 92%. The inhibition at 10 µM in the series on PC3 turned out to be 98%; in the series on LNCaP it was 91%. Besides, the IC50 with MCF7 was 0.9 µM; with MDA231, 200 nM; in the series on Mia-PaCa, 0.6 µM; in the series with HepG2, 1 µM; in the series with LNCaP, 1 µM.

For the compound `Cc1c(C)c2c(c(C)c1CCCCCCNC(=O)OC(C)(C)C)CCC(C)(COc1ccc(/C=C3\SC(=O)NC3=O)cc1)O2` (racemic) [C, (±) Tert-butyl(6-{2-[4-(2,4-dioxo-thiazolidin-5-ylidenemethyl)-phenoxymethyl]-2,5,7,8-tetramethyl-chroman-6-yl}-hexyl)-carbamate], the “Hepatocyte viability % (100 μM)” value in series [1] (Table I campaign) is recorded as 85%. In addition, the “Hepatocyte viability % (200 μM)” value in [1] (Table I campaign) turned out to be 80%. The inhibition at 10 µM in the series with MCF7 turned out to be 24%; with HCT116 it was 55%; in the series on MDA231, 51%; with MDA435, 39%; in the series on Mia-PaCa it was 30%; in the series with HepG2, 77%. Further, the inhibition at 10 µM was found to be 26% in the series with PC3 and 68% in the series with LNCaP. Besides, the IC50 with MCF7 came to 9.6 µM; in the series on MDA231, 2100 nM; in the series with Mia-PaCa, 8.8 µM; with HepG2, 2.4 µM; in the series on LNCaP it was 6.4 µM.

For the compound `Cc1c(C)c2c(c(C)c1O)CCC(C)(CN1C(=O)S/C(=C\c3ccc(O)cc3)C1=O)O2` (racemic) [H, (±) 5-(4-hydroxy-benzylidene)-3-(6-hydroxy-2,5,7,8-tetramethyl-chroman-2-ylmethyl)-thiazolidine-2,4-dione], the “Hepatocyte viability % (100 μM)” value in series [1] (Table II campaign) was 110%. For the same compound, the “Hepatocyte viability % (200 μM)” value in series [1] (Table II campaign) turned out to be 103%. Moreover, the inhibition at 10 µM with MCF7 came out at 95%; with HCT116, 95%; with MDA231, 95%; in the series with MDA435, 87%; with Mia-PaCa, 102%; in the series on HepG2 it was 79%. Further, the inhibition at 10 µM turned out to be 64% in the series with PC3 and 51% in the series with LNCaP. The IC50 came out at 3.4 µM with MCF7; 1900 nM with MDA231; 1.3 µM in the series on Mia-PaCa; 5.7 µM in the series with HepG2; 6.1 µM with LNCaP.

Regarding `CC1(CN2C(=O)S/C(=C\c3cc(Br)c(O)c(Br)c3)C2=O)CCCCC1` [L, reference compound], the “Hepatocyte viability % (100 μM)” value in [1] (Table I campaign) stood at 42%. For the same compound, in [1] (Table I campaign), the “Hepatocyte viability % (200 μM)” value is listed as 30%. The inhibition at 10 µM in the series on MCF7 came to 76%; in the series with HCT116, 87%; with MDA231 it was 53%; in the series on MDA435, 69%; in the series on Mia-PaCa, 65%; in the series with HepG2, 74%. Further, the inhibition at 10 µM is 47% with PC3 and 81% in the series on LNCaP. Besides, the half-maximal inhibitory concentration (IC50) came out at 9.3 µM in the series with MCF7; 5700 nM with MDA231; 8.1 µM in the series on Mia-PaCa; 8.8 µM with HepG2; 1.8 µM in the series on LNCaP.
